Experimental data published in ChEMBL document CHEMBL4402557, “Nidufexor (LMB763), a Novel FXR Modulator for the Treatment of Nonalcoholic Steatohepatitis” (J Med Chem, 2020).
Activity calls are given as the source filed them. No cut-off for these calls is given here.

Assays:
[1] = Ratio of AUC in liver to plasma in Wistar rat liver at 10 mg/kg, po; format: ADME, organism-based; conditions: read-out: Ratio AUC
[2] = Oral bioavailability in rabbit at 10 mg/kg; format: ADME, organism-based, Oryctolagus cuniculus; conditions: in vivo
[3] = Oral bioavailability in Wistar rat at 10 mg/kg; format: ADME, organism-based; conditions: in vivo
Mus musculus [4] = species: Mus musculus; assay: Anti Steato-hepatitic activity in C57BL/6J mouse STAM model assessed as change in OSTb gene level in liver; format: functional, organism-based
[5] = biological target: T1, Bile acid receptor (Rattus norvegicus) (UniProt Q62735); assay: Agonist activity at FXR in rat primary hepatocytes assessed as increase in BSEP mRNA level incubated for 24 hrs by qRT-PCR analysis relative to DMSO; format: cell-based
T1 sequence (whole entry): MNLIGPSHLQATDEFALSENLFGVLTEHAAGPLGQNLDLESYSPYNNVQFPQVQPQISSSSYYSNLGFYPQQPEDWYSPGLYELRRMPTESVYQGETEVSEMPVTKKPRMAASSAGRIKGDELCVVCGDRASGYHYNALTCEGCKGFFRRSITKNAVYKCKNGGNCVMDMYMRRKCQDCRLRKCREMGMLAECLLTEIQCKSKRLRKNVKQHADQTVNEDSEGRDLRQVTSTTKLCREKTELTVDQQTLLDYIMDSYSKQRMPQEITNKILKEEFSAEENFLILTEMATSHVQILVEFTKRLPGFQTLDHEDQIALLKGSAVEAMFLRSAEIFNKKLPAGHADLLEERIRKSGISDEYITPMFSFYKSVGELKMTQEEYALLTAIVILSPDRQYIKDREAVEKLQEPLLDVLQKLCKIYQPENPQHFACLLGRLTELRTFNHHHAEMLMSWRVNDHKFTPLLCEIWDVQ

[6] = Cmax in Wistar rat at 300 mg/kg, po; format: ADME, organism-based; design: dose 300 mg/kg, route oral; conditions: in vivo
Rattus norvegicus = assay: In-vivo agonist activity at FXR in orally dosed Han Wistar rat assessed as repression of CYP8b1 mRNA level in liver administered via oral gavage once daily for 14 days measured post last dose by qRT-PCR analysis; format: functional, organism-based
[7] = Volume of distribution at steady state in Wistar rat at 3 mg/kg, iv; format: ADME, organism-based; conditions: in vivo, read-out: Vdss
Glucocorticoid receptor = biological target: T2, Glucocorticoid receptor (Homo sapiens, UniProt P04150); assay: Agonist activity at Glucocorticoid receptor (unknown origin) incubated for 2 hrs by TR-FRET assay
T2 sequence (P04150 whole entry): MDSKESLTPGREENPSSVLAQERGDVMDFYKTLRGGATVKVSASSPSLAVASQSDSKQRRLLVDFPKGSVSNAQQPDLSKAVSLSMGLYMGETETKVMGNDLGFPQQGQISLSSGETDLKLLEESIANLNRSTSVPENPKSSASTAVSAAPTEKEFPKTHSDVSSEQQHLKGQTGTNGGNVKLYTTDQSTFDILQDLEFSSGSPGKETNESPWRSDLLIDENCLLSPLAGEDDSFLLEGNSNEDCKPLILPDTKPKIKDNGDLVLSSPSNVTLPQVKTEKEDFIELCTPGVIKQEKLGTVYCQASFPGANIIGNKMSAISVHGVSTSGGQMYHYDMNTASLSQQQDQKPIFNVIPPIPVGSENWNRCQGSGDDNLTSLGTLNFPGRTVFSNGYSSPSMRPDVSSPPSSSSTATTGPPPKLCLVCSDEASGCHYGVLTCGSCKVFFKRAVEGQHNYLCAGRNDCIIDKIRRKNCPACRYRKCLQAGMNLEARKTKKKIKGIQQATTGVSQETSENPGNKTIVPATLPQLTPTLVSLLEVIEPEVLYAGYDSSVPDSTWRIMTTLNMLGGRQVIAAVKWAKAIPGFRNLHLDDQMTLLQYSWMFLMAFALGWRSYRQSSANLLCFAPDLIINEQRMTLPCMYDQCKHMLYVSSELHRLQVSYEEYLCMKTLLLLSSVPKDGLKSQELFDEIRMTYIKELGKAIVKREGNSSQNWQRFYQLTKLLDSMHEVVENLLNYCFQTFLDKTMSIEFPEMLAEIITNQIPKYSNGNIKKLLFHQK

Bile acid receptor [8] = biological target: T3, Bile acid receptor (Homo sapiens, UniProt Q96RI1); assay: Agonist activity at GST-tagged human FXR-LBD (193 to 472 residues) using biotinylated SRC-1 peptide as substrate incubated for 1 hrs by HTRF assay
T3 sequence (Q96RI1 whole entry): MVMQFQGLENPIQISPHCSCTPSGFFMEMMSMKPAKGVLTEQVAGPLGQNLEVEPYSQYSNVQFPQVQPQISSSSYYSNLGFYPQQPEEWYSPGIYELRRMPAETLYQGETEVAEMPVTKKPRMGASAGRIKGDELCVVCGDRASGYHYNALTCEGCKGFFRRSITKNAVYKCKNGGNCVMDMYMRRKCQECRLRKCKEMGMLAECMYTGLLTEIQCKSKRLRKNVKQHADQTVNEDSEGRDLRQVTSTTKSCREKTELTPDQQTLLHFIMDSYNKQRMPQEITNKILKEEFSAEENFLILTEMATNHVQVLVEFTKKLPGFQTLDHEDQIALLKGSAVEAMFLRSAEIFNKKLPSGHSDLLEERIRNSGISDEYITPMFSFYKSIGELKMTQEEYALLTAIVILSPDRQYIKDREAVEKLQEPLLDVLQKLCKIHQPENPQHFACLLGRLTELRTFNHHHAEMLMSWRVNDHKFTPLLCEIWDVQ

[9] = Oral bioavailability in Wistar rat at 10 mg/kg in presence of 0.5% CMC/0.5% Tween 80; format: ADME, organism-based; conditions: in vivo
[10] = Clearance in rabbit at 5 mg/kg, iv; format: ADME, organism-based, Oryctolagus cuniculus; conditions: in vivo
Bile acid receptor [11] = biological target: T3, Bile acid receptor; assay: Agonist activity at FXR transfected in human HEK293T cells o-expressing pGL3/hBSEP/luc incubated for 24 hrs by Steady-Glo reagent based luciferase reporter gene assay; format: cell-based
Mus musculus [12] = assay: Anti Steato-hepatitic activity in STZ/HFD induced oral dosed C57BL/6J mouse STAM model assessed as reduction in inflammatory cell infiltration administered via oral gavage once daily for 3 weeks and measured on 9 week by H and E staining based assay; format: functional, organism-based
[13] = Volume of distribution at steady state in rabbit at 5 mg/kg, iv; format: ADME, organism-based, Oryctolagus cuniculus; conditions: in vivo, read-out: Vdss
[14] = biological target: T4, G-protein coupled bile acid receptor 1 (Homo sapiens) (UniProt Q8TDU6); assay: Agonist activity at human GPBAR1 expressed in Jurkat cells assessed as increase in intracellular cAMP level incubated for 1 hr by fluorescence based assay relative to control; format: functional, cell-based
T4 sequence (whole entry): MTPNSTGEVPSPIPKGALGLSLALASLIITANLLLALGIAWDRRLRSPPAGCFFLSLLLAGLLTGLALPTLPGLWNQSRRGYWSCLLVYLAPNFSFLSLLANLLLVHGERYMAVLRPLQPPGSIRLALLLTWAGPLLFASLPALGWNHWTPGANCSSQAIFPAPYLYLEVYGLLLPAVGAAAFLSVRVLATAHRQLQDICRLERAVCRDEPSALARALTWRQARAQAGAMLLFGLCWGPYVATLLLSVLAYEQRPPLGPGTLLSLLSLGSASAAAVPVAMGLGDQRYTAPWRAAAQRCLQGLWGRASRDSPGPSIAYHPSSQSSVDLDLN

Mus musculus [15] = species: Mus musculus; assay: Anti Steato-hepatitic activity in C57BL/6J mouse STAM model assessed as change in Nr0b2 gene level in liver; format: functional, organism-based

Kp [1]: 1.5
bioavailability [2]: 52%
bioavailability [3]: 52%
Cmax [6]: 141 µM
Vd [7]: 0.8 L/kg
EC50 (Glucocorticoid receptor): > 30000 nM
EC50 (Bile acid receptor [8]): 7 nM
bioavailability [9]: 10%
clearance [10]: 5.6 mL/min/kg
Vd [13]: 0.6 L/kg
Efficacy [14]: 13%
Structure (SMILES): Cn1nc(C(=O)N(Cc2ccccc2)Cc2ccc(C(=O)O)cc2)c2c1-c1cc(Cl)ccc1OC2 [NIDUFEXOR]
Activity (Mus musculus [4]): Active
fold change (FC) [5]: 24
Activity (Rattus norvegicus): Active
EC50 (Bile acid receptor [11]): 32 nM
Activity (Mus musculus [12]): Dose-dependent effect
Activity (Mus musculus [15]): Active
